Measured values taken from patent US5288709A, “Erythromycin derivatives” (priority 1991, dated 1994).
Values after ≈ are worked out from the molar mass of the structure shown. Read-outs that look alike come from different tables or passages of the source.

Columns and labels:
Assay in all cases: In-vitro antimicrobial activity primary screen (agar dilution MIC)
Format in all cases: cell-based
[1] = tested on: Streptococcus agalactiae CMX 508; details: 20-24 h
How it was run: (§1)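 Each strain was applied with a Steers replicator block to agar plates containing graded test compound, using 1:100 inocula, or 1:10 where growth was slow, as with Streptococcus. Plates were incubated for 20-24 hours at 35-37° C. A reference antibiotic of the same class was run alongside.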

[2] = tested on: Staphylococcus aureus NCTC 10649; details: NCTC10649, BHI agar, 20-24 h, read-out: MIC
How it was run: as §1

[3] = tested on: Streptococcus pyrogenes EES61; details: BHI agar, 20-24 h
How it was run: as §1

[4] = tested on: Pseudomonas aeruginosa K799/WT; details: Pseudomonas aeruginosa, K799/WT, 24 h
How it was run: as §1

[5] = tested on: Staphylococcus aureus A5177; details: Staphylococcus aureus, A5177, 24 h
How it was run: as §1

[6] = tested on: Providencia stuartii CMX 640; details: Providencia stuartii, CMX640, 24 h
How it was run: as §1

[7] = tested on: Pseudomonas cepacia 2961; details: Burkholderia cepacia, 2961, 24 h, BHI agar, 20-24 h
How it was run: as §1

[8] = tested on: Staphylococcus aureus 45 RAR2; details: Staphylococcus aureus, 45RAR2, 24 h, BHI agar, 20-24 h
How it was run: as §1

[9] = tested on: Escherichia coli DC-2
How it was run: as §1

[10] = tested on: Staphylococcus aureus 642A; details: BHI agar, 20-24 h, read-out: MIC
How it was run: as §1

[11] = tested on: Pseudomonas aeruginosa BMH10; details: Pseudomonas aeruginosa, BMH10, 24 h, BHI agar, 20-24 h
How it was run: as §1

[12] = tested on: Staphylococcus epidermidis 3519; details: BHI agar, 20-24 h
How it was run: as §1

[13] = tested on: Staphylococcus aureus 45; details: BHI agar, 20-24 h
How it was run: as §1

[14] = tested on: Pseudomonas aeruginosa A5007; details: Pseudomonas aeruginosa, A5007, 24 h
How it was run: as §1

[15] = tested on: Escherichia coli JUHL
How it was run: as §1

[16] = tested on: Staphylococcus aureus ATCC 6538P; details: Staphylococcus aureus, ATCC6538P, 24 h, BHI agar, 20-24 h
How it was run: as §1

[17] = tested on: Escherichia coli SS; details: BHI agar, 20-24 h, read-out: MIC
How it was run: as §1

[18] = tested on: Streptococcus bovis A5169; details: Streptococcus equinus, A5169, 24 h, BHI agar, 20-24 h
How it was run: as §1

[19] = tested on: Micrococcus luteus ATCC 9341; details: 20-24 h
How it was run: as §1

[20] = tested on: Enterobacter aerogenes ATCC 13048; details: Klebsiella aerogenes
How it was run: as §1

[21] = tested on: Escherichia coli H560
How it was run: as §1

[22] = tested on: Streptococcus pyrogenes 2548 INDUC; details: BHI agar, 20-24 h
How it was run: as §1

[23] = tested on: Enterococcus faecium ATCC 8043
How it was run: as §1

[24] = tested on: Klebsiella pneumoniae ATCC 8045; details: Klebsiella pneumoniae, ATCC8045, 24 h
How it was run: as §1

[25] = tested on: Micrococcus luteus ATCC 4698; details: Micrococcus luteus, ATCC4698, 24 h, BHI agar, 20-24 h
How it was run: as §1

[26] = tested on: Staphylococcus aureus CMX 553; details: Staphylococcus aureus, CMX553, 24 h, BHI agar, 20-24 h, read-out: MIC
How it was run: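 Agar dilution in Brain Heart Infusion agar with twelve successive compound dilutions; plates inoculated with 1:100 diluted cultures by replicator and incubated 20-24 h at 35-37 °C. MIC is the lowest concentration giving no growth, slight haze or sparse isolated colonies versus compound-free control; erythromycin A plate run as reference.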

[27] = tested on: Acinetobacter SP CMX 669; details: Acinetobacter, SPCMX669, 24 h
How it was run: as §1

[28] = tested on: Pseudomonas aeruginosa K799/61; details: Pseudomonas aeruginosa K799/61, BHI agar, 20-24 h
How it was run: as §1

[29] = Staphylococcus epidermidis, 3519, 24 h
[30] = Staphylococcus aureus, 45, 24 h
[31] = ATCC9341, BHI agar, read-out: MIC
[32] = Enterococcus faecium, ATCC8043, 24 h
[33] = CMX508, BHI agar, read-out: MIC

Structure (SMILES)	MIC [2] [µg/mL]	MIC [4] [µg/mL]	MIC [5] [µg/mL]	MIC [6] [µg/mL]	MIC [7] [µg/mL]	MIC [8] [µg/mL]	MIC ([9]; Escherichia coli, DC2, 24 h) [µg/mL]	MIC [10] [µg/mL]	MIC [11] [µg/mL]	MIC [12, 29] [µg/mL]	MIC [13, 30] [µg/mL]	MIC [14] [µg/mL]	MIC ([15]; Escherichia coli, 24 h) [µg/mL]	MIC [16] [µg/mL]	MIC [17] [µg/mL]	MIC [18] [µg/mL]	MIC [19, 31] [µg/mL]	MIC [24] [µg/mL]	MIC [25] [µg/mL]	MIC [26] [µg/mL]	other results
CC[C@H]1OC(=O)[C@H](C)[C@@H](O[C@H]2C[C@@](C)(OC)[C@@H](O)[C@H](C)O2)[C@H](C)[C@@H](O[C@@H]2O[C@H](C)C[C@H](N(C)C)[C@H]2O)[C@](C)(OC)C[C@@H](C)C2=C(C)C(=O)[C@]1(C)O2 [Example 27, 9,10-Dihehydro-9-deoxo-11,12-dideoxy-9,12-epoxy-6-O-methyl-11-oxoerythromycin A]	0.39 (≈ 0.536 µM)	> 100	0.39 (≈ 0.536 µM)	> 100	> 100	0.39 (≈ 0.536 µM)	> 100	0.39 (≈ 0.536 µM)	100 (≈ 137 µM)	0.39 (≈ 0.536 µM)	3.1 (≈ 4.26 µM)	> 100	> 100	0.39 (≈ 0.536 µM)	0.78 (≈ 1.07 µM)	0.05 (≈ 0.0687 µM)	0.05 (≈ 0.0687 µM)	> 100	0.2 (≈ 0.275 µM)	0.39 (≈ 0.536 µM)	MIC ([1]; Streptococcus agalactiae, CMX508, 24 h, BHI agar): 0.05 µg/mL (≈ 0.0687 µM); MIC ([3]; Streptococcus, EES61, 24 h): 0.05 µg/mL (≈ 0.0687 µM); MIC ([20]; ATCC13048, 24 h): > 100 µg/mL; MIC ([21]; Escherichia coli, H560, 24 h): 100 µg/mL (≈ 137 µM); MIC ([22]; read-out: MIC): 100 µg/mL (≈ 137 µM); MIC [23, 32]: 0.1 µg/mL (≈ 0.137 µM)
CC[C@H]1OC(=O)[C@H](C)[C@@H](O[C@H]2C[C@@](C)(OC)[C@H](N)[C@H](C)O2)[C@H](C)[C@@H](O[C@@H]2O[C@H](C)C[C@H](N(C)C)[C@H]2O)[C@](C)(O)C[C@@H](C)[C@@H]2O[C@@]1(C)[C@@H](N)[C@H]2C [Example 20, (4"R,9S,11S)-4",11-Diamino-9-deoxo-4",11,12-trideoxy-9,12-epoxyerythromycinA]	0.39 (≈ 0.545 µM)			> 100	> 100	0.39 (≈ 0.545 µM)		0.39 (≈ 0.545 µM)	25 (≈ 34.9 µM)			> 100		0.2 (≈ 0.279 µM)	0.05 (≈ 0.0698 µM)	≤ 0.005		1.56 (≈ 2.18 µM)	0.1 (≈ 0.14 µM)	0.2 (≈ 0.279 µM)	MIC [1, 33]: 0.02 µg/mL (≈ 0.0279 µM); MIC ([3]; read-out: MIC): ≤ 0.005 µg/mL; MIC ([4]; Pseudomonas aeruginosa K799/WT, BHI agar, 20-24 h): 50 µg/mL (≈ 69.8 µM); MIC ([5]; Staphylococcus aureus A5177, BHI agar, 20-24 h): 0.78 µg/mL (≈ 1.09 µM); MIC [27]: 1.56 µg/mL (≈ 2.18 µM); MIC ([9]; DC2, Escherichia coli DC-2, BHI agar, 20-24 h, read-out: MIC): 3.1 µg/mL (≈ 4.33 µM); MIC ([28]; read-out: MIC): 0.78 µg/mL (≈ 1.09 µM); MIC ([12]; read-out: MIC): 0.2 µg/mL (≈ 0.279 µM); MIC ([13]; read-out: MIC): 0.2 µg/mL (≈ 0.279 µM); MIC ([15]; Escherichia coli JUHL, BHI agar, 20-24 h, read-out: MIC): 3.1 µg/mL (≈ 4.33 µM); MIC ([19]; Micrococcus luteus, ATCC9341, 24 h, BHI agar): 0.02 µg/mL (≈ 0.0279 µM); MIC ([20]; ATCC13048, Enterobacter aerogenes ATCC 13048, BHI agar, 20-24 h, read-out: MIC): 12.5 µg/mL (≈ 17.5 µM); MIC ([21]; Escherichia coli H560, BHI agar, 20-24 h, read-out: MIC): 1.56 µg/mL (≈ 2.18 µM); MIC ([22]; read-out: MIC): 0.78 µg/mL (≈ 1.09 µM); MIC ([23]; ATCC8043, Enterococcus faecium ATCC 8043, BHI agar, 20-24 h, read-out: MIC): 0.05 µg/mL (≈ 0.0698 µM)
CC[C@H]1OC(=O)[C@H](C)[C@@H](O[C@H]2C[C@@](C)(OC)[C@@H](O)[C@H](C)O2)[C@H](C)[C@@H](O[C@@H]2O[C@H](C)C[C@H](N(C)C)[C@H]2O)[C@](C)(OC)C[C@@H](C)[C@@H]2O[C@@]1(C)C(=O)[C@H]2C [Example 28B]	0.39 (≈ 0.534 µM)	> 100	0.39 (≈ 0.534 µM)	> 100	> 100	0.39 (≈ 0.534 µM)	> 100	0.39 (≈ 0.534 µM)	50 (≈ 68.5 µM)	0.39 (≈ 0.534 µM)	3.1 (≈ 4.25 µM)	> 100	> 100	0.39 (≈ 0.534 µM)	0.39 (≈ 0.534 µM)	0.05 (≈ 0.0685 µM)	0.05 (≈ 0.0685 µM)	> 100	0.1 (≈ 0.137 µM)	0.39 (≈ 0.534 µM)	MIC [1, 33]: 0.02 µg/mL (≈ 0.0274 µM); MIC ([3]; read-out: MIC): 0.02 µg/mL (≈ 0.0274 µM); MIC ([27]; Acinetobacter SP CMX 669, BHI agar, 20-24 h): 12.5 µg/mL (≈ 17.1 µM); MIC ([28]; Pseudomonas aeruginosa, K799/61, 24 h): 3.1 µg/mL (≈ 4.25 µM); MIC ([20]; ATCC13048, 24 h): > 100 µg/mL; MIC ([21]; Escherichia coli, H560, 24 h): > 100 µg/mL; MIC ([22]; Streptococcus, 2548INDUC, 24 h): 3.1 µg/mL (≈ 4.25 µM); MIC [23, 32]: 0.1 µg/mL (≈ 0.137 µM)
